Data: US20220310200A1, “METHODS FOR IDENTIFYING AND USING DISEASE-ASSOCIATED ANTIGENS” (KIROMIC BIOPHARMA, INC., priority 2019, published 2022)
No end group written: not given here.

Test system: Autologous DCs pulsed with the IsoMSLN peptide
Test: DC-T-cell co-culture immunogenicity, 4-hour Calcein-AM-release cytotoxicity assay
Type: cell-based
Settings: E/T ratio 10:1 and 5:1; peripheral blood mononuclear cells of a healthy individual; control unrelated HIV peptide; FIG. 5
Experimental: The peptide unique to the isoform variant (i.e., PQAPRRPL (SEQ ID NO: 19)) was then tested for immunogenicity using a dendritic cell (DC)- T-cell co-culture system as previously described (Chiriva-Internati et al. Blood. 2002 Aug. 1;100(3):961-5). A standard 4-hour Calcein-AM-release assay was performed to determine the cytotoxic activity of the IsoMSLN peptide stimulated T cells. Autologous DCs pulsed with the IsoMSLN peptide or with an unrelated peptide (derived from HIV), were used as target cells (at an effector-target cell [E/T] ratio of 10:1 and 5:1).

## PQAPRRPL [PQAPRRPL]
  immunogenicity (cytotoxic activity of peptide stimulated T cells, percent specific killing): immunogenic
